Experimental data: ChEMBL document CHEMBL1201862, “PubChem BioAssay data set” (2004)
Where “and” joins values, the source holds several entries; their conditions need not be identical. Equal values may be shown once.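 In this assay, cells in 96-well plates receive the compound at five concentrations for 48 hours. Endpoints are linearly interpolated between the surrounding concentrations. Abbreviation: GI50, concentration required for 50% inhibition of growth.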 Calls of active or inactive are those of the source. Cut-off read from the data, not from the text of the source: active = GI50 up to about 1.1 µM and inactive = higher.

Tests used:
Assay in all cases: growth of human tumour cells (NCI), 48 h
NCI-H23 = system: NCI-H23
DU-145 = system: DU-145
U-251 = system: U-251
SF-539 = system: SF-539
HCT-116 = system: HCT-116
A549 = system: A549
HL-60 = system: HL-60
PC-3 = system: PC-3
LOX IMVI = system: LOX IMVI
SNB-19 = system: SNB-19
Hs-578T = system: Hs-578T
LXFL 529 = system: LXFL 529
MOLT-4 = system: MOLT-4
SK-MEL-5 = system: SK-MEL-5
XF498 = system: XF498
BT-549 = system: BT-549
OVCAR-8 = system: OVCAR-8
NCI-H522 = system: NCI-H522
CAKI-1 = system: CAKI-1
HCC 2998 = system: HCC 2998
786-0 = system: 786-0
SR = system: SR
NCI-H460 = system: NCI-H460
MDA-MB-435 = system: MDA-MB-435
KM-20L2 = system: KM-20L2
DLD-1 = system: DLD-1
RPMI-8226 = system: RPMI-8226
HT-29 = system: HT-29
M14 = system: M14
MCF7 = system: MCF7
DMS-273 = system: DMS-273
ACHN = system: ACHN
HCT-15 = system: HCT-15
IGROV-1 = system: IGROV-1
MDA-N = system: MDA-N
MDA-MB-231 = system: MDA-MB-231
K562 = system: K562
KM12 = system: KM12
DMS-114 = system: DMS-114
UO-31 = system: UO-31
NCI-H226 = system: NCI-H226
OVCAR-4 = system: OVCAR-4
OVCAR-5 = system: OVCAR-5
HOP-62 = system: HOP-62
SF-295 = system: SF-295
OVCAR-3 = system: OVCAR-3
SN12C = system: SN12C
SNB-75 = system: SNB-75
SK-OV-3 = system: SK-OV-3
SF-268 = system: SF-268
HOP-92 = system: HOP-92
Malme-3M = system: Malme-3M
COLO 205 = system: COLO 205
EKVX = system: EKVX
M19-MEL = system: M19-MEL
SNB-78 = system: SNB-78
CCRF-CEM = system: CCRF-CEM
SK-MEL-2 = system: SK-MEL-2
SW-620 = system: SW-620
A498 = system: A498
RXF 393 = system: RXF 393
UACC-257 = system: UACC-257
UACC-62 = system: UACC-62
TK-10 = system: TK-10
SK-MEL-28 = system: SK-MEL-28

SMILES: Nc1nc(N)c2nc(CNc3ccc(C(=O)NC(CCCNC(=O)c4ccccc4C(=O)O)C(=O)O)cc3)cnc2n1 (stereo not drawn)
- GI50 (NCI-H23): < 0.01 µM (active)
- GI50 (DU-145): 10 nM (active)
- GI50 (U-251): < 10 nM (active) and 14.3 nM (active)
- GI50 (SF-539): < 0.01 µM (active)
- GI50 (HCT-116): < 0.215 µM (active)
- GI50 (A549): < 0.01 µM (active)
- GI50 (HL-60): < 0.01 µM (active)
- GI50 (PC-3): 10 nM (active)
- GI50 (LOX IMVI): < 0.01 µM (active)
- GI50 (SNB-19): < 20.2 nM (active) and 21.6 nM (active)
- GI50 (Hs-578T): > 100 µM (inactive)
- GI50 (LXFL 529): 0.000762 µM (active)
- GI50 (MOLT-4): < 19.4 nM (active) and < 10 nM (active)
- GI50 (SK-MEL-5): 10 nM (active) and < 18.4 nM (active)
- GI50 (XF498): > 100 µM (inactive)
- GI50 (BT-549): 6.18 µM (inactive)
- GI50 (OVCAR-8): < 0.01 µM (active)
- GI50 (NCI-H522): < 0.01 µM (active)
- GI50 (CAKI-1): 0.01 µM (active)
- GI50 (HCC 2998): < 0.01 µM (active)
- GI50 (786-0): 0.01 µM (active)
- GI50 (SR): 0.01 µM (active)
- GI50 (NCI-H460): < 0.01 µM (active)
- GI50 (MDA-MB-435): 3.11 nM (active)
- GI50 (KM-20L2): 8.75 nM (active)
- GI50 (DLD-1): < 0.01 µM (active)
- GI50 (RPMI-8226): < 0.01 µM (active)
- GI50 (HT-29): < 0.01 µM (active)
- GI50 (M14): 0.01 µM (active)
- GI50 (MCF7): 10 nM (active)
- GI50 (DMS-273): 0.01 µM (active)
- GI50 (ACHN): 0.01 µM (active)
- GI50 (HCT-15): 10 nM
- GI50 (IGROV-1): < 0.01 µM (active)
- GI50 (MDA-N): 10 nM (active)
- GI50 (MDA-MB-231): > 100 µM (inactive)

SMILES: COc1ccc(C(C2=C(C)C(=O)c3ccccc3C2=O)c2ccc(C(C)C)cc(=O)c2O)cc1 (stereo not drawn)
- GI50 (NCI-H23): 3.51 µM (inactive)
- GI50 (U-251): 3.12 µM (inactive)
- GI50 (K562): 3.55 µM (inactive)
- GI50 (SF-539): 2.69 µM (inactive)
- GI50 (KM12): 4.3 µM (inactive)
- GI50 (HCT-116): 3.81 µM (inactive)
- GI50 (A549): 3.55 µM (inactive)
- GI50 (HL-60): 2.61 µM (inactive)
- GI50 (DMS-114): 2.82 µM (inactive)
- GI50 (UO-31): 2.12 µM (inactive)
- GI50 (LOX IMVI): 3.55 µM (inactive)
- GI50 (NCI-H226): 1.7 µM (inactive)
- GI50 (OVCAR-4): 6.49 µM (inactive)
- GI50 (LXFL 529): 4.06 µM (inactive)
- GI50 (MOLT-4): 3.47 µM (inactive)
- GI50 (SK-MEL-5): 5.96 µM (inactive)
- GI50 (OVCAR-5): 2.06 µM (inactive)
- GI50 (HOP-62): 2.59 µM (inactive)
- GI50 (XF498): 0.685 µM (active)
- GI50 (SF-295): 4.7 µM (inactive)
- GI50 (OVCAR-8): 4.18 µM (inactive)
- GI50 (NCI-H522): 13.8 µM (inactive)
- GI50 (CAKI-1): 3.03 µM (inactive)
- GI50 (OVCAR-3): 2.68 µM (inactive)
- GI50 (SN12C): 2.87 µM (inactive)
- GI50 (SNB-75): 2.59 µM (inactive)
- GI50 (786-0): 2.53 µM (inactive)
- GI50 (SK-OV-3): 3.49 µM (inactive)
- GI50 (SR): 3.29 µM (inactive)
- GI50 (SF-268): 3.77 µM (inactive)
- GI50 (NCI-H460): 3.78 µM (inactive)
- GI50 (HOP-92): 3.57 µM (inactive)
- GI50 (Malme-3M): 4.26 µM (inactive)
- GI50 (DLD-1): 4.79 µM (inactive)
- GI50 (COLO 205): 5.31 µM (inactive)
- GI50 (EKVX): 2.77 µM (inactive)
- GI50 (RPMI-8226): 3.74 µM (inactive)
- GI50 (HT-29): 6.04 µM (inactive)
- GI50 (M14): 2.53 µM (inactive)
- GI50 (M19-MEL): 2.22 µM (inactive)
- GI50 (DMS-273): 2.23 µM (inactive)
- GI50 (SNB-78): 5.41 µM (inactive)
- GI50 (ACHN): 3.05 µM (inactive)
- GI50 (CCRF-CEM): 3.73 µM (inactive)
- GI50 (HCT-15): 2580 nM
- GI50 (IGROV-1): 4.16 µM (inactive)
- GI50 (SK-MEL-2): 1.16 µM (inactive)
- GI50 (SW-620): 6.1 µM (inactive)

SMILES: O=c1nc(-c2ccccc2)c2c3c(cccn13)CCC2
- GI50 (NCI-H23): > 100 µM (inactive)
- GI50 (U-251): > 100 µM (inactive)
- GI50 (K562): > 100 µM (inactive)
- GI50 (SF-539): > 100 µM (inactive)
- GI50 (KM12): > 100 µM (inactive)
- GI50 (HCT-116): > 100 µM (inactive)
- GI50 (A549): > 100 µM (inactive)
- GI50 (HL-60): > 100 µM (inactive)
- GI50 (DMS-114): > 100 µM (inactive)
- GI50 (UO-31): 73.6 µM (inactive)
- GI50 (LOX IMVI): > 100 µM (inactive)
- GI50 (NCI-H226): 54 µM (inactive)
- GI50 (SNB-19): > 100 µM (inactive)
- GI50 (A498): 92 µM (inactive)
- GI50 (OVCAR-4): > 100 µM (inactive)
- GI50 (LXFL 529): > 100 µM (inactive)
- GI50 (MOLT-4): > 100 µM (inactive)
- GI50 (SK-MEL-5): > 100 µM (inactive)
- GI50 (OVCAR-5): > 100 µM (inactive)
- GI50 (HOP-62): > 100 µM (inactive)
- GI50 (XF498): > 100 µM (inactive)
- GI50 (SF-295): > 100 µM (inactive)
- GI50 (OVCAR-8): > 100 µM (inactive)
- GI50 (RXF 393): > 100 µM (inactive)
- GI50 (NCI-H522): > 100 µM (inactive)
- GI50 (CAKI-1): > 100 µM (inactive)
- GI50 (OVCAR-3): > 100 µM (inactive)
- GI50 (SN12C): > 100 µM (inactive)
- GI50 (SNB-75): 21.8 µM (inactive)
- GI50 (UACC-257): > 100 µM (inactive)
- GI50 (HCC 2998): > 100 µM (inactive)
- GI50 (786-0): > 100 µM (inactive)
- GI50 (SK-OV-3): > 100 µM (inactive)
- GI50 (SR): > 100 µM (inactive)
- GI50 (SF-268): > 100 µM (inactive)
- GI50 (NCI-H460): > 100 µM (inactive)
- GI50 (HOP-92): > 100 µM (inactive)
- GI50 (Malme-3M): > 100 µM (inactive)
- GI50 (DLD-1): > 100 µM (inactive)
- GI50 (UACC-62): > 100 µM (inactive)
- GI50 (RPMI-8226): > 100 µM (inactive)
- GI50 (HT-29): > 100 µM (inactive)
- GI50 (M14): > 100 µM (inactive)
- GI50 (M19-MEL): > 100 µM (inactive)
- GI50 (DMS-273): > 100 µM (inactive)
- GI50 (SNB-78): > 100 µM (inactive)
- GI50 (TK-10): > 100 µM (inactive)
- GI50 (ACHN): > 100 µM (inactive)
- GI50 (CCRF-CEM): > 100 µM (inactive)
- GI50 (HCT-15): > 100000 nM
- GI50 (IGROV-1): > 100 µM (inactive)
- GI50 (SK-MEL-2): > 100 µM (inactive)
- GI50 (SK-MEL-28): > 100 µM (inactive)
- GI50 (SW-620): > 100 µM (inactive)
